These results are taken from publication PMC9374667 (Communications Biology, 2022).

Data set [1] in a line: Berberine content in adipose tissue of db/db mice (HPLC). Conditions: BJ 75 and 150 mg/kg, BBR 150 mg/kg, crushing, extracting. The text has this:
Response: We thank the Reviewer for this comment. In line with the Reviewer ’s
each group by crushing, extracting, and HPLC analysis.
based on the improved bioavailability.
Figure 1. (a) The positions of the peaks of berberine standards in the HPLC assay.

Data set [2] deals with T1, IKKε (Mus musculus, UniProt Q9R0T8).
T1 sequence (Q9R0T8 1-717): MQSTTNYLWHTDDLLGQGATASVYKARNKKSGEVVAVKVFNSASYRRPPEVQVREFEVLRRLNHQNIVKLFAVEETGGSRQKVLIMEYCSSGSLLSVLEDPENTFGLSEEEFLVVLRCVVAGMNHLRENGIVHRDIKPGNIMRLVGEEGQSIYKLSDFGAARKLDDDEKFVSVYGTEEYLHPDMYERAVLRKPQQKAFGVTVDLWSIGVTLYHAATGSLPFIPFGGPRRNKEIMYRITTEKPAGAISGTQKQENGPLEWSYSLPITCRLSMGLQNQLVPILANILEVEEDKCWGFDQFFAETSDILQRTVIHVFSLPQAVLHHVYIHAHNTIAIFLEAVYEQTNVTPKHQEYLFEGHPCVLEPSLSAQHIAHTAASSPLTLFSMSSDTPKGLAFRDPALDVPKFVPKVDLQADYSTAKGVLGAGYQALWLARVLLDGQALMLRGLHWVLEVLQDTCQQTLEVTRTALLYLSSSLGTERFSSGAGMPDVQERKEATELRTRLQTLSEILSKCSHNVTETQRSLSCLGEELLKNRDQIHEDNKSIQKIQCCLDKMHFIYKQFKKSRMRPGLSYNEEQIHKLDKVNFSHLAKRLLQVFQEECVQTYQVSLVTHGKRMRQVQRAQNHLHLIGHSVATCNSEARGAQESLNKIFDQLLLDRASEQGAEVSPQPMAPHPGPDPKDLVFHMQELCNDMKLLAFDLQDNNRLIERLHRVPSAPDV
As to the kind of experiment: IKKε activity assay in BAT. It is filed as in vivo, mice. The conditions noted are these: for the expression of IKKε in BAT of db/db mice: Figure 6l, individual values. Also noted: The adipose tissue was ultrasound-crushed in PBS buffer solution (1:9 w/v) to prepare the tissue homogenate; from tissue; host or cells: epididymal white adipose tissue (eWAT) and brown adipose tissue (BAT) of C57BLKS WT and db/db mice. The protocol: (§1) The adipose tissue was ultrasound-crushed in PBS buffer solution (1:9 w/v) to prepare the tissue homogenate. The tissue homogenate was centrifuged at 5000 × g for 10 min, and the supernatant was taken for detection. Briefly, samples or standards were added to the microplates pre-coated with IKKε antibody or TBK1 antibody. Then horseradish peroxidase (HRP) labeled antibody was added and incubated at 37 °C for 60 min. After thorough washing, the 3,3′,5,5′-tetramethylbenzidine (TMB) substrate was used for color development, and the absorbance (OD value) was determined at 450 nm.

The target in data set [3] is T2, TBK1 (Mus musculus, UniProt Q9WUN2).
T2 sequence (Q9WUN2 1-729): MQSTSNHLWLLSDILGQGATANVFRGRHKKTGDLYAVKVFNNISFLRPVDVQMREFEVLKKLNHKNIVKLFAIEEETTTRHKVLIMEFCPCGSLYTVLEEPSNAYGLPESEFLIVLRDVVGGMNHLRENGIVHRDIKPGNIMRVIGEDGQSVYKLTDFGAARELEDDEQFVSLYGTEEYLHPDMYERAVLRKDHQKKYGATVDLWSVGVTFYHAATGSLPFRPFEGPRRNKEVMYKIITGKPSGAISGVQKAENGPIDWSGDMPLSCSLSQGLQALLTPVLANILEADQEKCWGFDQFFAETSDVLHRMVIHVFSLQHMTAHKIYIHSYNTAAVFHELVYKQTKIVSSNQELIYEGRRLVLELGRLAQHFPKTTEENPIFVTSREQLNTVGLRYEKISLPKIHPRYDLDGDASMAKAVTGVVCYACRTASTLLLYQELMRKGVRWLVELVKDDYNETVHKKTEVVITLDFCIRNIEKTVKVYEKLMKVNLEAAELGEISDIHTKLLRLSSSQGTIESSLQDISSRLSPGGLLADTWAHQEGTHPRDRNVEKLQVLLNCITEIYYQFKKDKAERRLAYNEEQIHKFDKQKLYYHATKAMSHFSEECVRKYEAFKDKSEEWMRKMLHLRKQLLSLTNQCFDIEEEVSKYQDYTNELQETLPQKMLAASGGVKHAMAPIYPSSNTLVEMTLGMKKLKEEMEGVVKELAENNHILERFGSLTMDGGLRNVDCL
In words: TBK1 activity assay in BAT. It is filed as in vivo, mice. More on the design: The adipose tissue was ultrasound-crushed in PBS buffer solution (1:9 w/v) to prepare the tissue homogenate; from tissue; host or cells: epididymal white adipose tissue (eWAT) and brown adipose tissue (BAT) of C57BLKS WT and db/db mice. The conditions noted are these: for the expression of TBK1 in BAT of db/db mice: Figure 6m, individual values. The protocol:
as §1

In data set [4] the test system is cAMP, glycerol release. As to the kind of experiment: cAMP levels and glycerol release in TNF-α induced 3T3-L1 adipocytes (isoproterenol). It is filed as cell-based, Murine. The protocol:
The epididymal adipose tissue was dissected, the fresh adipose tissue was weighed and rapidly rinsed with PBS. The adipose tissue was cut and incubated with isoproterenol (10 μM) for 2 h, and homogenized in a cold cleavage buffer to prepare the adipose tissue homogenate. Then the homogenate was centrifuged at 12,000 × g at 4 °C for 15 min, and the supernatant was collected. […] Then the cells were lysed in a petri dish, scraped off, and centrifuged at 12,000 × g at 4 °C for 15 min before the supernatant was collected. […] And concentrations were further standardized according to protein concentration.

Where “and” joins values, the source holds several entries; their conditions need not be identical. Equal values may be shown once.

As to `COc1ccc2cc3[n+](cc2c1OC)CCc1cc2c(cc1-3)OCO2` [BBR, Berberine chloride dihydrate], the “BBR in adipose tissue (accumulation)” value in data set [1] is “not detected”.
Consider `CC(C)Cc1ccc(C(C)C(=O)[O-])cc1.COc1ccc2cc3[n+](cc2c1OC)CCc1cc2c(cc1-3)OCO2.O.O.O.O` [BJ, berberine-ibuprofen], for which the “the expression of IKKε in BAT of db/db mice” value in data set [2] (db/db+BJ 75mg/kg) is 0.441 U/g and 0.458 U/g and 0.427 U/g and 0.409 U/g and 0.371 U/g and 0.436 U/g; in data set [2] (db/db+BJ 150mg/kg) it was 0.429 U/g and 0.4 U/g and 0.314 U/g and 0.335 U/g and 0.348 U/g and 0.398 U/g. For the same compound, the “IKKε activity and expression levels in BAT” value in data set [2] (db/db mice, both doses of BJ) is on record as “had no effect”. Also, the “the expression of TBK1 in BAT of db/db mice” value was 0.366 U/g and 0.397 U/g and 0.402 U/g and 0.336 U/g and 0.384 U/g and 0.344 U/g in data set [3] (db/db+BJ 75mg/kg); 0.338 U/g and 0.377 U/g and 0.358 U/g and 0.428 U/g and 0.335 U/g and 0.369 U/g in data set [3] (db/db+BJ 150mg/kg). Also, in data set [3] (db/db mice, both doses of BJ), the “TBK1 activity and expression levels in BAT” value is recorded as “had no effect”. Also, the “Glycerol release in differentiated 3T3-L1 adipocytes induced by TNF-α” value in data set [4] (BJ) was 92.8546 µmol/L and 97.0733 µmol/L and 93.6983 µmol/L; in data set [4] (BJ+TNF-α(50ng/ml)), 63.3237 µmol/L and 59.9487 µmol/L and 58.2612 µmol/L; in data set [4] (ISO+BJ), 186.51 µmol/L and 191.572 µmol/L and 183.135 µmol/L; in data set [4] (ISO+BJ+TNF-α(50ng/ml)), 167.104 µmol/L and 166.26 µmol/L. The “cAMP levels in differentiated 3T3-L1 adipocytes induced by TNF-α” value was 0.2237 pmol/mg protein and 0.2235 pmol/mg protein and 0.2307 pmol/mg protein in data set [4] (BJ); 0.1653 pmol/mg protein and 0.1544 pmol/mg protein and 0.1605 pmol/mg protein in data set [4] (BJ+TNF-α(50ng/ml)); 0.3839 pmol/mg protein and 0.37 pmol/mg protein and 0.3787 pmol/mg protein in data set [4] (ISO+BJ); 0.248 pmol/mg protein and 0.2422 pmol/mg protein and 0.2461 pmol/mg protein in data set [4] (ISO+BJ+TNF-α(50ng/ml)). Further, the “Glycerol release and cAMP levels” value in data set [4] (TNF-α induced 3T3-L1 adipocytes, BJ pretreatment, isoproterenol stimulation) was “promoted glycerol release, increased cAMP levels”.
